Assay results taken from patent publication US20260265700A1, “NEURAL BIOHYBRID MANUFACTURED USING REDUCED GRAPHENE OXIDE NANOPARTICLES, NEUROMUSCULAR JUNCTION MODEL USING SAME, AND DRUG SCREENING METHOD USING SAME” (Sogang University Research & Business Development Foundation, priority 2023, published 2026).

Tested on: NMJs manufactured using ALS neural biohybrids
Assay: Muscle bundle contraction in 3D ALS-neuromuscular junction model
Type: cell-based, human
Conditions: ALS-NMJ
Procedure: First, a hydrogel used for the 3D muscle bundles was prepared using a mixture of 340 μl of C2C12, 30% Matrigel, 250 μl of 16 mg/ml […], 10 μl of thrombin (0.5 U/1 mg fibrinogen) and 100 μl of DMEM.
After culturing for 4 days, the medium was replaced with DMEM supplemented with 2% horse serum, 100 U/mL penicillin-G, 100 μg/mL streptomycin, 1 mg/mL aminocaproic acid, and 1 ng/mL insulin growth factor-1 (IGF-1) as a muscle cell differentiation medium. The medium was changed every 2 days, and differentiation was carried out for 14 days or more.
The co-culture differentiation medium, along with muscle differentiation medium, was supplemented with brain-derived and glial cell line-derived neurotrophic factors (10 ng/ml BDNF and 10 ng/ml GDNF) to support viability of multiple neural biohybrids. The differentiation medium was replaced every two days for two weeks.

COc1cc(Nc2c(C#N)cnc3cc(OCCCN4CCN(C)CC4)c(OC)cc23)c(Cl)cc1Cl [bosutinib]
contraction of the muscle bundle relative to muscle movement of normal NMJs (after 5 days of treatment, FIG. 3C): approximately 85%
concentration giving the greatest recovery of muscle movement (various concentrations tested, FIGS. 3D and 3E): 100 µM
